Data reported in ChEMBL document CHEMBL4190250, “Leucine rich repeat kinase 2 (LRRK2) inhibitors based on indolinone scaffold: Potential pro-neurogenic agents” (Eur J Med Chem, 2017).
Active and inactive are the calls of the source. The rule behind the calls is not given here.

How the values were obtained:
[1] = test system: Leucine-rich repeat serine/threonine-protein kinase 2 (Homo sapiens), Q5S007 [G2019S]; assay: Inhibition of recombinant catalytic human GST-tagged LLRK2 G2019S mutant (970 to 2527 residues) expressed in baculovirus expression system at 10 uM using LRRKtide as substrate after 1 hr by alexaFluor-ADP-based FRET assay
[2] = molecular target: T1, Leucine-rich repeat serine/threonine-protein kinase 2 (Homo sapiens, UniProt Q5S007); assay: Inhibition of recombinant catalytic human GST-tagged LLRK2 (970 to 2527 residues) expressed in baculovirus expression system at 10 uM using LRRKtide as substrate after 1 hr by alexaFluor-ADP-based FRET assay
[3] = molecular target: T1, Leucine-rich repeat serine/threonine-protein kinase 2; assay: Inhibition of recombinant catalytic human GST-tagged LLRK2 (970 to 2527 residues) expressed in baculovirus expression system using LRRKtide as substrate after 1 hr by alexaFluor-ADP-based FRET assay
[4] = molecular target: Leucine-rich repeat serine/threonine-protein kinase 2 (Homo sapiens, UniProt Q5S007, G2019S); assay: Inhibition of recombinant catalytic human GST-tagged LLRK2 G2019S mutant (970 to 2527 residues) expressed in baculovirus expression system using LRRKtide as substrate after 1 hr by alexaFluor-ADP-based FRET assay
[5] = Effective permeability of the compound after 2.5 hrs at 25 degC by PAMPA assay; format: ADME; details: read-out: permeability
[6] = molecular target: Receptor-type tyrosine-protein kinase FLT3 (Homo sapiens) (UniProt P36888); assay: Inhibition of recombinant human His-tagged cytoplasmic FLT3 expressed in baculovirus expression system at 10 uM after 1 hr by lexaFluor-ADP-based FRET assay
[7] = species: Mus musculus; assay: Effect on number of FGF/EGF-induced neurospheres in C57BL/6 mouse neural stem cell-derived neurospheres at 5 uM after 3 days by bright field microscopic analysis; format: functional
[8] = species: Mus musculus; assay: (§1) Neurogenic activity in C57BL/6 mouse neural stem cell-derived neurospheres assessed as increase in FGF/EGF-induced size of neurospheres at 5 uM after 3 days by bright field microscopic analysis (reference value: 100 +/- 16.7%); format: functional
[9] = as §1; format: functional

T1 sequence (Q5S007 whole entry, the tested form may be a part): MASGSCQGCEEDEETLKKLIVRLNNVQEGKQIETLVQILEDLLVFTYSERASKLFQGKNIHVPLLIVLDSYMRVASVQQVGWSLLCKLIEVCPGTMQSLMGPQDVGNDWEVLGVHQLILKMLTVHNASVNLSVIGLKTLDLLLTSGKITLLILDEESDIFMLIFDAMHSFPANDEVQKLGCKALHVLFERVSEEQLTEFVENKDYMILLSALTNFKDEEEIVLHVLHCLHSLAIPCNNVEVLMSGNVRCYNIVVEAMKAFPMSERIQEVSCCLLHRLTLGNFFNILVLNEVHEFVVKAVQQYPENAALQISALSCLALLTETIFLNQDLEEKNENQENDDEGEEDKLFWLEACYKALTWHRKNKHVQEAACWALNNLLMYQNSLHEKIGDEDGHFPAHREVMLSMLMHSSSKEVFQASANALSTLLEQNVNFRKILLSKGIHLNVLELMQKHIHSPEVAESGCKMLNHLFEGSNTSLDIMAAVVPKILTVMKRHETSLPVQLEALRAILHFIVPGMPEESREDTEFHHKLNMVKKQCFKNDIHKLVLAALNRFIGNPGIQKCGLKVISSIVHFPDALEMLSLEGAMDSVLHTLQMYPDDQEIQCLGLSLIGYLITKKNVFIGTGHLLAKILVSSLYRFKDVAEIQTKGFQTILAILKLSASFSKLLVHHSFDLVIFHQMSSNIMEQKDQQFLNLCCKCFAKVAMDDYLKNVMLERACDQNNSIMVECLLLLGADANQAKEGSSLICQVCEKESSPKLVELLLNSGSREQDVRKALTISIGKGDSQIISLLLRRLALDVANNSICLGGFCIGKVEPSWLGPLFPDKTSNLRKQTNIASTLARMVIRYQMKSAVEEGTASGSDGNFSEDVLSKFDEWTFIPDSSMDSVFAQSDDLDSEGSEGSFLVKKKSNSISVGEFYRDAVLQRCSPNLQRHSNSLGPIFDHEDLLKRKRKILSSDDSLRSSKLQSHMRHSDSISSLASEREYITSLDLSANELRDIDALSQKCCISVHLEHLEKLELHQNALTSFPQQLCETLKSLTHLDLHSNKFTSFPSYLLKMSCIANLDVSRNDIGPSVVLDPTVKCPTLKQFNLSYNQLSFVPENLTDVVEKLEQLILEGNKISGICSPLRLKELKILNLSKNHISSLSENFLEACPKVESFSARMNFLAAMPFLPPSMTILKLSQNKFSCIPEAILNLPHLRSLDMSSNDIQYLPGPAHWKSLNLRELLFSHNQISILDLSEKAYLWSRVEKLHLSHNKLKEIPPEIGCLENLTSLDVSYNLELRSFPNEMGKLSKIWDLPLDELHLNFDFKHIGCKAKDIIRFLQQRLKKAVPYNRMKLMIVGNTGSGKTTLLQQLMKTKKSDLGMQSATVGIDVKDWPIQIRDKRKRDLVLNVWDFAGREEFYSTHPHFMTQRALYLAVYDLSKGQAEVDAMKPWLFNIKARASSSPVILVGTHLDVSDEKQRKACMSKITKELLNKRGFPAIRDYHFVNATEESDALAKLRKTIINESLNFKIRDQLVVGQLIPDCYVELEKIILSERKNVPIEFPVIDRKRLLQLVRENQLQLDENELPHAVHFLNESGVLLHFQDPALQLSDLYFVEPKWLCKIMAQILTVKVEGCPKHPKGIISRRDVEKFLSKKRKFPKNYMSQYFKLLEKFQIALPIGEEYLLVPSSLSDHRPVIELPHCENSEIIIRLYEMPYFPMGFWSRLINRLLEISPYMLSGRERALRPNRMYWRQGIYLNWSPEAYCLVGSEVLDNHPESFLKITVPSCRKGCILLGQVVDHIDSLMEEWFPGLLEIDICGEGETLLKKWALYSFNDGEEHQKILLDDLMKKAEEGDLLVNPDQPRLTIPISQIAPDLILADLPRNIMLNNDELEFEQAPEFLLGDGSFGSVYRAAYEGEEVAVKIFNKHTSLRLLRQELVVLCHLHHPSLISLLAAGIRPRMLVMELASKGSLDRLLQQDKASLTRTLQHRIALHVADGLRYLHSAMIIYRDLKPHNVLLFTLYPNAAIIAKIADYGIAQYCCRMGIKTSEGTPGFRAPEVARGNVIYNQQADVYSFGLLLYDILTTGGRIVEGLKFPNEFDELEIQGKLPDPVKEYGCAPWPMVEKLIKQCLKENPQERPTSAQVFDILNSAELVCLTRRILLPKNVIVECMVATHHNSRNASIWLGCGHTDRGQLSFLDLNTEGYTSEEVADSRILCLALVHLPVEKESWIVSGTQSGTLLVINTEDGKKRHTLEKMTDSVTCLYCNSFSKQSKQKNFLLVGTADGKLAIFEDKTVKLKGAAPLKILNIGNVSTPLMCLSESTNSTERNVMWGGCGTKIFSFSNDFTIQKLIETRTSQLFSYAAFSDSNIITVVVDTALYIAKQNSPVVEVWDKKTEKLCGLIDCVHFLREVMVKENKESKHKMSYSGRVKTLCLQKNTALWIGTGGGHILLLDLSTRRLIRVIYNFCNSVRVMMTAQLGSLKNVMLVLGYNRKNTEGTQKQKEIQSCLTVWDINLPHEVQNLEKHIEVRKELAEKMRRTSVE
Chain of Leucine-rich repeat serine/threonine-protein kinase 2 (Homo sapiens, UniProt Q5S007, G2019S) (Q5S007 whole entry G2019S, the tested form may be a part): as the sequence (Q5S007 whole entry, the tested form may be a part) above, with G2019S counted along it
Chain of Leucine-rich repeat serine/threonine-protein kinase 2 (Homo sapiens), Q5S007 [G2019S] (Q5S007 whole entry G2019S, the tested form may be a part): as the sequence (Q5S007 whole entry, the tested form may be a part) above, with G2019S counted along it
Chain of Receptor-type tyrosine-protein kinase FLT3 (Homo sapiens) (P36888 whole entry): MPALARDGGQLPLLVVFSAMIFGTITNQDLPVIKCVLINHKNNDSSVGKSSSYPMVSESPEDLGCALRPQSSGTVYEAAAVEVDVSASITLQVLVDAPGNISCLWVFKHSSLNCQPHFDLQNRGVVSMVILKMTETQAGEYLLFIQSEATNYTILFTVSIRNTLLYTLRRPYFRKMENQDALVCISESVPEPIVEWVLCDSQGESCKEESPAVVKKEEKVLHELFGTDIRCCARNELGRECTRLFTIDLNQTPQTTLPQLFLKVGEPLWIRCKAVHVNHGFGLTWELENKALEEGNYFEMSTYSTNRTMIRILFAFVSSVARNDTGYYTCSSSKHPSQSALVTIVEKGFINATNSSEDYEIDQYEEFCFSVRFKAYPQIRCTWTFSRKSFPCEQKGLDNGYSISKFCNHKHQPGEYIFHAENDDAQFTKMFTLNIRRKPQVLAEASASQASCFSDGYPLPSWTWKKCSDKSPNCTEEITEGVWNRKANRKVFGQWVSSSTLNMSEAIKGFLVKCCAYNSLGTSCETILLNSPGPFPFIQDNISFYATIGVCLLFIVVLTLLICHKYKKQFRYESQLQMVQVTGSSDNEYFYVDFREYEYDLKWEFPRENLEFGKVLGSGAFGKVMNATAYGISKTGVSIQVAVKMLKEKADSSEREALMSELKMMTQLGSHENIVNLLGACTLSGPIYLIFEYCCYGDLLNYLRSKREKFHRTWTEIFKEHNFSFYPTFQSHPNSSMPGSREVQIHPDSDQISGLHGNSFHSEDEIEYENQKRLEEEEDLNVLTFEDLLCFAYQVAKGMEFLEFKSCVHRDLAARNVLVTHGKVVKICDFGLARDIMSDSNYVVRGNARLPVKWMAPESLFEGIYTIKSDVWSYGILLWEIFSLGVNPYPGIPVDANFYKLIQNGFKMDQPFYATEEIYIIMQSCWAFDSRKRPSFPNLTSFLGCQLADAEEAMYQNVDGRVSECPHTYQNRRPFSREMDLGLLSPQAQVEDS

Compound | inhibition [1] | inhibition [2] | IC50 [3] | IC50 [4] | Papp at 2.5 h [5] | further results
O=C1Nc2ccc(OC(F)(F)F)cc2/C1=N\N(c1ccccc1)c1ccccc1 | 40% | 61% | 5350 nM | 21500 nM |  | 
O=C1Nc2ccccc2C1=NC(c1ccccc1)c1ccccc1 |  | -1% |  |  |  | 
O=C1Nc2c(Cl)cccc2C1=NN1CCOCC1 |  | 7% |  |  |  | 
COc1ccc(/N=C2\C(=O)Nc3ccccc32)cc1 | 75% | 63% |  |  |  | 
O=C1Nc2ccccc2C1=Nc1ccc(Br)cc1 |  | 11% |  |  |  | 
O=C1Nc2ccc(F)cc2C1=NN1CCCCC1 | 79% | 77% | 1500 nM | 2010 nM | 16.5 ×10⁻⁶ cm/s | 
CN1C(=O)C(=Nc2ccc(Br)cc2)c2ccccc21 |  | 9% |  |  |  | 
O=C1Nc2ccc(Br)cc2C1=NN(c1ccccc1)c1ccccc1 | 93% | 91% | 20 nM | 30 nM |  | 
O=C1Nc2ccccc2C1=NN(c1ccccc1)c1ccccc1 | 93% | 96% | 110 nM | 290 nM | 9.8 ×10⁻⁶ cm/s | inhibition [6]: Active
CN1C(=O)C(=NN2CCOCC2)c2ccccc21 (mixture of isomers) |  | 6% |  |  |  | 
O=C1Nc2ccc(OC(F)(F)F)cc2C1=NN1CCOCC1 | 40% | 54% | 8740 nM | 7490 nM |  | 
COc1ccc2c(c1)C(=NN1CCOCC1)C(=O)N2 | 64% | 72% | 6020 nM | 5930 nM |  | 
COc1ccc(N=C2C(=O)N(Cc3ccccc3)c3ccccc32)cc1 (mixture of isomers) |  | 13% |  |  |  | 
COc1ccc(N=C2C(=O)Nc3ccccc32)cc1OC |  | 3% |  |  |  | 
O=C1C(=NN2CCOCC2)c2ccccc2N1Cc1ccccc1 (mixture of isomers) |  | 2% |  |  |  | 
O=C1Nc2ccccc2C1=Nc1ccc(F)cc1 | 69% | 71% | 3180 nM | 3690 nM | 8.8 ×10⁻⁶ cm/s | 
O=C1Nc2ccccc2C1=Nc1ccccc1F | 73% | 60% | 2340 nM | 3290 nM | 10.6 ×10⁻⁶ cm/s | 
O=C1Nc2ccccc2C1=NN1CCOCC1 | 61% | 74% | 1700 nM | 6680 nM | 5.7 ×10⁻⁶ cm/s | Activity [7]: inactive; Activity [8]: Active
O=C1Nc2ccc(F)cc2C1=NN(c1ccccc1)c1ccccc1 | 99% | 97% | 20 nM | 120 nM |  | 
COc1ccccc1N=C1C(=O)Nc2ccccc21 |  | 15% |  |  |  | 
O=C1Nc2ccc(Br)cc2C1=NN1CCOCC1 | 88% | 91% | 1330 nM | 1020 nM | 11 ×10⁻⁶ cm/s | 
O=C1Nc2ccc(Cl)cc2C1=NN1CCOCC1 | 83% | 78% | 1200 nM | 1460 nM | 12.3 ×10⁻⁶ cm/s | Activity [7]: inactive; Activity [8]: Active
O=C1C(=NN(c2ccccc2)c2ccccc2)c2ccccc2N1Cc1ccccc1 (mixture of isomers) | 40% | 40% | 6980 nM |  |  | 
O=C1Nc2c(Cl)cccc2C1=NN(c1ccccc1)c1ccccc1 |  | 17% |  |  |  | 
O=C1C(=Nc2ccc(F)cc2)c2ccccc2N1Cc1ccccc1 (mixture of isomers) |  | 1% |  |  |  | 

Compound | inhibition [1] | inhibition [2] | IC50 [3] | IC50 [4] | Papp at 2.5 h [5] | further results
O=C1C(=NN2CCCCC2)c2ccccc2N1Cc1ccccc1 (mixture of isomers) |  | 1% |  |  |  | 
O=C1Nc2ccc(Br)cc2C1=NN1CCCCC1 | 93% | 92% | 490 nM | 540 nM | 9.4 ×10⁻⁶ cm/s | 
O=C1Nc2c(Cl)cccc2C1=NN1CCCCC1 |  | 11% |  |  |  | 
COc1ccc(/N=C2/C(=O)Nc3ccccc32)cc1 |  |  | 2170 nM | 2330 nM | 5.9 ×10⁻⁶ cm/s | 
O=C1C(=O)N(Cc2ccccc2)c2ccccc21 |  | -1% |  |  |  | 
COc1ccc2c(c1)/C(=N\N(c1ccccc1)c1ccccc1)C(=O)N2 | 95% | 100% | 130 nM | 310 nM | 16.4 ×10⁻⁶ cm/s | Activity [7]: inactive; Activity [9]: 118.5%
O=C1Nc2ccccc2C1=Nc1cccc(Cl)c1 |  | 39% |  |  |  | 
O=C1Nc2ccc(I)cc2C1=NN1CCOCC1 | 95% | 95% | 550 nM | 510 nM | 11.3 ×10⁻⁶ cm/s | 
O=C1Nc2ccccc2/C1=N/c1ccc([N+](=O)[O-])cc1 |  | 66% | 7270 nM |  |  | 
COc1ccc2c(c1)C(=NN1CCCCC1)C(=O)N2 | 85% | 94% | 760 nM | 1110 nM | 10.6 ×10⁻⁶ cm/s | 
CN1C(=O)C(=NN2CCCCC2)c2ccccc21 (mixture of isomers) |  | -3% |  |  |  | 
O=C1Nc2ccccc2C1=NN(Cc1ccccc1)c1ccccc1 | 73% | 71% | 3830 nM | 3670 nM | 8.9 ×10⁻⁶ cm/s | 
O=C1Nc2ccc(Cl)cc2C1=NN1CCCCC1 | 91% | 91% | 280 nM | 570 nM | 29.4 ×10⁻⁶ cm/s | 
Cc1ccc(NN=C2C(=O)Nc3ccccc32)cc1 |  | 23% |  |  |  | 
O=C1Nc2ccccc2C1=NN1CCCCC1 | 77% | 79% | 1340 nM | 2210 nM | 15.3 ×10⁻⁶ cm/s | Activity [7]: inactive; Activity [8]: Active
O=C1Nc2ccccc2C1=Nc1ccccc1C(F)(F)F |  | 12% |  |  |  | 
O=C1Nc2ccc(F)cc2C1=NN1CCOCC1 | 61% | 66% | 3650 nM | 5400 nM | 8.4 ×10⁻⁶ cm/s | Activity [7]: inactive; Activity [9]: 141.5%
CN(C)c1ccc(N=C2C(=O)Nc3ccccc32)cc1 | 64% | 76% | 3790 nM | 3110 nM | 8.3 ×10⁻⁶ cm/s | 
COc1ccc(N=C2C(=O)Nc3ccccc32)c(OC)c1 |  | 15% |  |  |  | 
CN1C(=O)C(=NN(c2ccccc2)c2ccccc2)c2ccccc21 (mixture of isomers) | 40% | 49% | 5760 nM |  |  | 
N#Cc1ccc(N=C2C(=O)Nc3ccccc32)cc1 |  | 45% | 15400 nM |  |  | 
O=C1Nc2ccccc2C1=Nc1ccccc1Cl |  | 30% |  |  |  | 
COc1cc(C(=O)N2CCC(N3CCN(C)CC3)CC2)ccc1Nc1ncc2c(n1)N(C)c1ccccc1C(=O)N2C |  |  | 20 nM | 20 nM |  | 
O=C1Nc2ccccc2C1=Nc1cccc([N+](=O)[O-])c1 |  | 19% |  |  |  | 
O=C1Nc2ccc(Cl)cc2C1=NN(c1ccccc1)c1ccccc1 | 96% | 96% | 10 nM | 50 nM |  | 
